Laboratory results taken from patent US20160177395A1, “BIOMARKERS FOR THE PREDICTION OF RENAL INJURY” (priority 2007, published 2016).
Where “and” joins values, the source holds several entries; their conditions need not be identical. Equal values may be shown once.

What was measured:
[1] = system: kidney tissues of treated or untreated rats; test: Real-time qRT-PCR of signature amplicons, validation stage, labeled and un-labeled samples (Table 23); conditions: for H31883_DB71_seg13 normalized qRT-PCR result / MUSCYCG1R_DB81_seg19-20 normalized qRT-PCR result / W41270_DB81_seg11 normalized qRT-PCR result: un-labeled sample, one line per animal; for AI045075_DB71_seg6 normalized qRT-PCR expression (Interferon stimulated exonuclease 20 (ISG20) transcript) / H31883_DB71_seg13 normalized qRT-PCR expression (Cyclin-G1 (CCNG1) transcript) / MUSCYCG1R_DB81_seg19-20 normalized qRT-PCR expression / W41270_DB81_seg11 normalized qRT-PCR expression (tumor necrosis factor receptor superfamily, member 12a transcript) / W64472_DB81_seg2 normalized qRT-PCR expression (Interferon stimulated exonuclease 20 (ISG20) transcript) / W83813_DB81_seg27 normalized qRT-PCR expression: un-labeled samples, kidney of individual male/female rats
Description: New primers were designed for part of the transcripts, and new conditions for several qRT-PCR reactions were used, as described below.
The measurements were normalized in two steps. First—according to the house-keeping-genes normalization factor, and second—each plate was normalized according to ratio of the intensity measurements from samples appearing in it and in the shuffled (normalization) plate (Table 25 provides the plates details and the section “Inter-Plate Normalization” provides details of the normalization process). The normalized values were further scaled by a factor, for ease of viewing.
RT was prepared and qRT-PCR performed and analyzed as described hereinabove. qRT-PCR was performed for the four genes comprising the signature of the discovery stage described in Table 13. Two amplicons were tested for each gene—one representing the wild-type transcript, and another representing an alternative splice variant. Each amplicon was measured using the labeled samples described in Table 9 herein, as well as the un-labeled samples. Samples from both groups (labeled and un-labeled) were tested in seven 96 well plates as described in Table 25. In order to correct possible run to run variations, the following controls were added: 1. several samples were repeated in all 96 wells plates; 2. control shuffled plate was designed which combined samples from all seven test plates.
To account for possible differences of qRT-PCR measurements between the different plates due to experimental artifacts, a normalization plate was planned. This plate, designated hereinabove ‘shuffled plate’, contained samples from all other plates. Real Time PCR was performed on this plate using the primers appropriate for all candidates in tables 26 and 27. For each other plate (plates 1-7 above) and each amplicon, the samples appearing also in the shuffled plate were examined—the ratio between the transcript abundance as measured in the plate to the abundance as measured in the shuffled plate was calculated, outliers were manually removed, and the geometric mean of the left ratios was taken as an additional multiplicative normalization factor for the plate and amplicon.

rat kidney samples = test: Random-Forest classifiers applied to un-labeled samples of T1, T2, T3 and control (Table 30); conditions: for Average 'Toxic' (%): average of the two classifiers
Experimental: To validate the optimal signature for classification of renal toxicity of a compound after five days of application a test of the signatory polynucleotide/gene expression in rat kidney samples consisting of tissues from rats exposed to three drug compounds and a single control group was carried out (Teva Pharmaceutical Industries, IL).
The two optimal classifiers (signatures described in Tables 26 and 27) were applied to the qRT-PCR reads of the un-labeled samples and their calls was used to assign a level of toxicity to each group and, eventually, each compound.
The classifiers described in Tables 26 and 27, were used for testing the un-labeled samples. Both classifiers were applied to the measurements of each sample, used the 30% bound from above, and the number of samples pass that bound in each group were summarized.

kidney = test: Renal histopathology of rats treated with T1, T2, T3; type: in vivo, rat; conditions: rats
Experimental: Each group consisted of 6 male and 6 female rats. The additional groups consisted of 6 males and 6 female rats treated with control compound for a single day and for five days, as described in Table 24.
T2 “no observed effect level” (NOEL, i.e., the maximal dose at which no toxic effect is visible) is 15 mg/kg.
At autopsy, both kidneys of each animal were removed and each kidney was cross sectioned. Half of each kidney was sent to RNA extraction and analysis.

[2] = Ds1, Day1, oral gavage, female rat kidney
[3] = Ds1, Day1, oral gavage, male rat kidney
[4] = Ds1, Day5, oral gavage, female rat kidney
[5] = Ds1, Day5, oral gavage, male rat kidney
[6] = Ds2, Day1, oral gavage, female rat kidney
[7] = Ds2, Day1, oral gavage, male rat kidney
[8] = Ds2, Day5, oral gavage, female rat kidney
[9] = Ds2, Day5, oral gavage, male rat kidney

C#CCN(C)c1nc2ccc(OC(F)(F)F)cc2s1 [T1]
H31883_DB71_seg13 normalized qRT-PCR result [1, 2]: 0.825 and 0.917 and 1.186 | MUSCYCG1R_DB81_seg19-20 normalized qRT-PCR result [1, 2]: 0.49 and 0.762 and 0.981 | W41270_DB81_seg11 normalized qRT-PCR result [1, 2]: 0.752 and 0.548 and 1.047 | H31883_DB71_seg13 normalized qRT-PCR result [1, 3]: 0.155 and 0.178 and 0.143 and 0.169 and 0.245 | MUSCYCG1R_DB81_seg19-20 normalized qRT-PCR result [1, 3]: 0.574 and 1.13 and 0.805 and 0.4 and 1.416 | W41270_DB81_seg11 normalized qRT-PCR result [1, 3]: 0.778 and 1.501 and 0.981 and 0.439 and 1.502 | H31883_DB71_seg13 normalized qRT-PCR result [1, 4]: 1.511 and 1.328 and 1.593 and 0.893 | MUSCYCG1R_DB81_seg19-20 normalized qRT-PCR result [1, 4]: 1.162 and 1.367 and 1.089 and 0.831 | W41270_DB81_seg11 normalized qRT-PCR result [1, 4]: 0.745 and 0.945 and 0.938 and 0.606 | H31883_DB71_seg13 normalized qRT-PCR result [1, 5]: 0.125 and 0.208 and 0.165 and 0.207 and 0.2 and 0.323 | MUSCYCG1R_DB81_seg19-20 normalized qRT-PCR result [1, 5]: 2.031 and 0.904 and 0.937 and 0.783 and 1.364 and 0.717 | W41270_DB81_seg11 normalized qRT-PCR result [1, 5]: 1.835 and 0.991 and 0.687 and 0.902 and 1.35 and 0.684 | H31883_DB71_seg13 normalized qRT-PCR result [1, 6]: 0.861 and 0.549 and 0.725 and 1.045 | MUSCYCG1R_DB81_seg19-20 normalized qRT-PCR result [1, 6]: 1.067 and 0.514 and 0.639 and 0.965 | W41270_DB81_seg11 normalized qRT-PCR result [1, 6]: 0.898 and 0.415 and 0.502 and 1.028 | H31883_DB71_seg13 normalized qRT-PCR result [1, 7]: 0.889 and 0.656 and 0.473 | MUSCYCG1R_DB81_seg19-20 normalized qRT-PCR result [1, 7]: 0.932 and 0.544 and 0.541 | W41270_DB81_seg11 normalized qRT-PCR result [1, 7]: 1.326 and 0.785 and 0.592 | H31883_DB71_seg13 normalized qRT-PCR result [1, 8]: 1.025 and 0.454 and 1.074 and 1.674 | MUSCYCG1R_DB81_seg19-20 normalized qRT-PCR result [1, 8]: 0.935 and 1.478 and 0.868 and 1.487 | W41270_DB81_seg11 normalized qRT-PCR result [1, 8]: 0.989 and 1.223 and 0.652 and 1.056 | H31883_DB71_seg13 normalized qRT-PCR result [1, 9]: 0.654 and 1.077 and 1.236 and 0.596 | MUSCYCG1R_DB81_seg19-20 normalized qRT-PCR result [1, 9]: 0.539 and 1.161 and 1.793 and 0.73 | W41270_DB81_seg11 normalized qRT-PCR result [1, 9]: 0.527 and 1.181 and 2.203 and 0.784 | AI045075_DB71_seg6 normalized qRT-PCR expression (Interferon stimulated exonuclease 20 (ISG20) transcript) ([1]; dose Ds1, Day1, oral gavage): 0.843 and 0.636 and 0.572 | H31883_DB71_seg13 normalized qRT-PCR expression (Cyclin-G1 (CCNG1) transcript) ([1]; dose Ds1, Day1, oral gavage): 0.913 and 0.757 and 0.615 and 0.73 and 0.524 and 0.783 and 0.912 and 0.87 and 0.957 and 0.923 and 0.706 | MUSCYCG1R_DB81_seg19-20 normalized qRT-PCR expression ([1]; dose Ds1, Day1, oral gavage): 1.49 and 0.291 and 0.271 and 0.376 and 0.135 and 1.436 and 1.195 and 0.249 and 1.891 and 0.299 and 2.31 | W41270_DB81_seg11 normalized qRT-PCR expression (tumor necrosis factor receptor superfamily, member 12a transcript) ([1]; dose Ds1, Day1, oral gavage): 0.66 and 0.181 and 0.396 and 0.198 and 0.231 and 0.758 and 0.646 and 0.47 and 1.082 and 0.734 and 0.566 | W64472_DB81_seg2 normalized qRT-PCR expression (Interferon stimulated exonuclease 20 (ISG20) transcript) ([1]; dose Ds1, Day1, oral gavage): 1.118 and 0.683 and 0.49 | W83813_DB81_seg27 normalized qRT-PCR expression ([1]; dose Ds1, Day1, oral gavage): 0.216 and 0.843 and 0.926 | AI045075_DB71_seg6 normalized qRT-PCR expression (Interferon stimulated exonuclease 20 (ISG20) transcript) ([1]; dose Ds1, Day5, oral gavage): 0.692 and 0.627 | H31883_DB71_seg13 normalized qRT-PCR expression (Cyclin-G1 (CCNG1) transcript) ([1]; dose Ds1, Day5, oral gavage): 1.373 and 1.353 and 1.266 and 1.783 and 1.477 and 1.097 and 2.104 and 1.249 and 1.458 and 1.23 and 1.01 and 1.013 | MUSCYCG1R_DB81_seg19-20 normalized qRT-PCR expression ([1]; dose Ds1, Day5, oral gavage): 1.598 and 0.183 and 0.149 and 0.214 and 3.532 and 0.296 and 3.397 and 0.186 and 1.317 and 0.189 and 0.816 and 1.499 | W41270_DB81_seg11 normalized qRT-PCR expression (tumor necrosis factor receptor superfamily, member 12a transcript) ([1]; dose Ds1, Day5, oral gavage): 1.527 and 0.473 and 0.702 and 0.356 and 1.325 and 0.657 (2×) and 1.014 and 1.11 and 1.337 and 0.638 and 0.703 | W64472_DB81_seg2 normalized qRT-PCR expression (Interferon stimulated exonuclease 20 (ISG20) transcript) ([1]; dose Ds1, Day5, oral gavage): 0.571 and 0.528 | W83813_DB81_seg27 normalized qRT-PCR expression ([1]; dose Ds1, Day5, oral gavage): 0.795 and 0.885 | AI045075_DB71_seg6 normalized qRT-PCR expression (Interferon stimulated exonuclease 20 (ISG20) transcript) ([1]; dose Ds2, Day1, oral gavage): 0.483 and 0.759 and 0.448 and 0.547 and 0.396 | H31883_DB71_seg13 normalized qRT-PCR expression (Cyclin-G1 (CCNG1) transcript) ([1]; dose Ds2, Day1, oral gavage): 0.517 (2×) and 0.906 and 0.849 and 0.696 and 0.611 and 0.707 and 0.867 and 1.153 and 1.19 and 0.623 and 0.798 | MUSCYCG1R_DB81_seg19-20 normalized qRT-PCR expression ([1]; dose Ds2, Day1, oral gavage): 0.385 and 0.76 and 0.739 and 0.478 and 0.738 and 0.652 and 0.654 and 1.261 and 0.609 and 0.835 and 0.696 and 0.804 | W41270_DB81_seg11 normalized qRT-PCR expression (tumor necrosis factor receptor superfamily, member 12a transcript) ([1]; dose Ds2, Day1, oral gavage): 0.78 and 0.755 and 0.885 and 0.462 and 0.413 and 0.762 and 0.644 and 1.034 and 1.265 and 0.653 and 0.383 and 0.472 | W64472_DB81_seg2 normalized qRT-PCR expression (Interferon stimulated exonuclease 20 (ISG20) transcript) ([1]; dose Ds2, Day1, oral gavage): 0.944 and 1.213 and 0.661 and 0.559 and 0.462 | W83813_DB81_seg27 normalized qRT-PCR expression ([1]; dose Ds2, Day1, oral gavage): 1.186 and 0.984 and 0.34 and 0.689 and 0.56 | AI045075_DB71_seg6 normalized qRT-PCR expression (Interferon stimulated exonuclease 20 (ISG20) transcript) ([1]; dose Ds2, Day5, oral gavage): 0.797 and 0.766 and 1.01 and 0.629 | H31883_DB71_seg13 normalized qRT-PCR expression (Cyclin-G1 (CCNG1) transcript) ([1]; dose Ds2, Day5, oral gavage): 1.36 and 1.037 and 1.84 and 1.348 and 2.423 and 1.13 and 2.468 and 1.684 and 1.672 and 1.663 and 1.554 and 0.996 | MUSCYCG1R_DB81_seg19-20 normalized qRT-PCR expression ([1]; dose Ds2, Day5, oral gavage): 0.359 and 0.871 and 0.852 and 0.761 and 1.197 and 0.631 and 1.238 and 0.528 and 1.583 and 1.018 and 0.919 and 0.756 | W41270_DB81_seg11 normalized qRT-PCR expression (tumor necrosis factor receptor superfamily, member 12a transcript) ([1]; dose Ds2, Day5, oral gavage): 0.009 and 0.391 and 0.964 and 0.713 and 1.825 and 0.453 and 1.254 and 1.111 and 1.126 and 1.164 and 1 and 0.71 | W64472_DB81_seg2 normalized qRT-PCR expression (Interferon stimulated exonuclease 20 (ISG20) transcript) ([1]; dose Ds2, Day5, oral gavage): 0.803 and 0.863 and 0.982 and 0.554 | W83813_DB81_seg27 normalized qRT-PCR expression ([1]; dose Ds2, Day5, oral gavage): 1.092 and 1.125 and 0.885 and 0.55 | Average 'Toxic' (%) (rat kidney samples; Ds1 Day1 Female): 0% | Average 'Toxic' (%) (rat kidney samples; Ds1 Day1 Male): 17% | Average 'Toxic' (%) (rat kidney samples; Ds1 Day5 Female): 50% | Average 'Toxic' (%) (rat kidney samples; Ds1 Day5 Male): 50% | Average 'Toxic' (%) (rat kidney samples; Ds2 Day1 Female): 0% | Average 'Toxic' (%) (rat kidney samples; Ds2 Day1 Male): 0% | Average 'Toxic' (%) (rat kidney samples; Ds2 Day5 Female): 66.5% | Average 'Toxic' (%) (rat kidney samples; Ds2 Day5 Male): 33% | Toxicity conclusion from classifier calls (rat kidney samples; signatures of Tables 26 and 27, 30% bound): nephrotoxic agents | Time after which visible pathological damage was seen (kidney): 28 days | Renal damage (kidney; dose and duration as in the value): renal damage, mainly in females, after 28 days of treatment at the 30 mg/kg dose
